Structures are written as SMILES. Where a SMILES comes first, the peptide text is derived from it. Bridges are numbered along the chain shown (N, C = ends). [ ]: non-standard residue; d: D form. The star is where a group is joined. Myristoyl = CCCCCCCCCCCCCC(=O)*; pGlu = O=C1CC[C@@H](C(=O)O)N1; d(hCys) = N[C@H](CCS)C(=O)O; hCys = N[C@@H](CCS)C(=O)O; Nle = CCCC[C@H](N)C(=O)O; AEEA = NCCOCCOCC(=O)O A value given as a limit tells only on which side of the number the result lay.

This series in a line: in vitro. The note with it: rat, not told, Surrogate activity-based Plasma stability t½.
The term half-life denotes how long it takes for the measured level to halve. In the case of `CCCC[C@@H]1NC(=O)[C@@H]2CCCN2C(=O)CNC(=O)[C@H](CCCCN)NC(=O)[C@H](Cc2c[nH]cn2)NC(=O)[C@@H](NC(=O)[C@H](CC(C)C)NC(=O)[C@H](CCCNC(=N)N)NC(=O)[C@@H]2CCCN2C(=O)[C@H](CCCNC(=N)N)NC(=O)[C@@H]2CCC(=O)N2)CSSC[C@@H](C(=O)N[C@@H](Cc2c[nH]cn2)C(=O)O)NC1=O` [Example 48, pE-R-P-R-L-C-H-K-G-P-Nle-C-H-OH] ([pGlu]RPRLCHKGP[Nle]CH-OH; disulfide 6-12), the half-life turned out to be 9.11 h.
`CCCC[C@@H]1NC(=O)[C@@H]2CCCN2C(=O)CNC(=O)[C@H](CCCCN)NC(=O)[C@H](Cc2c[nH]cn2)NC(=O)[C@@H](NC(=O)[C@H](CC(C)C)NC(=O)[C@H](CCCNC(=N)N)NC(=O)[C@@H]2CCCN2C(=O)[C@H](CCCNC(=N)N)NC(=O)[C@@H]2CCC(=O)N2)CSSC[C@@H](C(=O)N[C@@H](CCC(=O)O)C(=O)O)NC1=O` [Example 49, pE-R-P-R-L-C-H-K-G-P-Nle-C-E-OH] ([pGlu]RPRLCHKGP[Nle]CE-OH; disulfide 6-12) displayed a half-life of more than 16.7 h.
For `CCCC[C@@H]1NC(=O)[C@@H]2CCCN2C(=O)CNC(=O)[C@H](CCCCN)NC(=O)[C@H](Cc2c[nH]cn2)NC(=O)[C@@H](NC(=O)[C@H](CC(C)C)NC(=O)[C@H](CCCNC(=N)N)NC(=O)[C@@H]2CCCN2C(=O)[C@H](CCCNC(=N)N)NC(=O)[C@@H]2CCC(=O)N2)CSSC[C@@H](C(=O)O)NC1=O` [Example 50, pE-R-P-R-L-C-H-K-G-P-Nle-C-OH] ([pGlu]RPRLCHKGP[Nle]C-OH; disulfide 6-12) the value was more than 16.7 h; for `CCCC[C@@H]1NC(=O)[C@@H]2CCCN2C(=O)CNC(=O)[C@H](CCCCN)NC(=O)[C@H](Cc2c[nH]cn2)NC(=O)[C@@H](NC(=O)[C@H](CC(C)C)NC(=O)[C@H](CCCNC(=N)N)NC(=O)[C@@H]2CCCN2C(=O)[C@H](CCCNC(=N)N)NC(=O)[C@@H]2CCC(=O)N2)CSSCC[C@@H](C(=O)N[C@@H](Cc2ccccc2)C(=O)O)NC1=O` [Example 51, pE-R-P-R-L-C-H-K-G-P-Nle-hC-F-OH] ([pGlu]RPRLCHKGP[Nle][hCys]F-OH; disulfide 6-12), 10.9 h; for `CCCC[C@@H]1NC(=O)[C@@H]2CCCN2C(=O)CNC(=O)[C@H](CCCCN)NC(=O)[C@H](Cc2c[nH]cn2)NC(=O)[C@@H](NC(=O)[C@H](CC(C)C)NC(=O)[C@H](CCCNC(=N)N)NC(=O)[C@@H]2CCCN2C(=O)[C@H](CCCNC(=N)N)NC(=O)[C@@H]2CCC(=O)N2)CCSSCC[C@@H](C(=O)N[C@@H](Cc2ccccc2)C(=O)O)NC1=O` [Example 52, pE-R-P-R-L-hC-H-K-G-P-Nle-hC-F-OH] ([pGlu]RPRL[hCys]HKGP[Nle][hCys]F-OH; disulfide 6-12), 13 h.
To `CCCC[C@@H]1NC(=O)[C@@H]2CCCN2C(=O)CNC(=O)[C@H](CCCCN)NC(=O)[C@H](Cc2c[nH]cn2)NC(=O)[C@H](NC(=O)[C@H](CC(C)C)NC(=O)[C@H](CCCNC(=N)N)NC(=O)[C@@H]2CCCN2C(=O)[C@H](CCCNC(=N)N)NC(=O)[C@@H]2CCC(=O)N2)CSSC[C@@H](C(=O)N[C@@H](Cc2ccccc2)C(=O)O)NC1=O` [Example 53, pE-R-P-R-L-c-H-K-G-P-Nle-C-F-OH] ([pGlu]RPRL[dC]HKGP[Nle]CF-OH; disulfide 6-12) belongs more than 16.7 h; to `CCCC[C@@H]1NC(=O)[C@@H]2CCCN2C(=O)CNC(=O)[C@H](CCCCN)NC(=O)[C@H](Cc2c[nH]cn2)NC(=O)[C@@H](NC(=O)[C@H](CC(C)C)NC(=O)[C@H](CCCNC(=N)N)NC(=O)[C@@H]2CCCN2C(=O)[C@H](CCCNC(=N)N)NC(=O)[C@@H]2CCC(=O)N2)CSSCC[C@H](C(=O)N[C@@H](Cc2ccccc2)C(=O)O)NC1=O` [Example 54, pE-R-P-R-L-C-H-K-G-P-Nle-(D-hC)-F-OH] ([pGlu]RPRLCHKGP[Nle][d(hCys)]F-OH; disulfide 6-12), more than 16.7 h.
To `CCCC[C@@H]1NC(=O)[C@@H]2CCCN2C(=O)CNC(=O)[C@H](CCCCN)NC(=O)[C@H](Cc2c[nH]cn2)NC(=O)[C@H](NC(=O)[C@H](CC(C)C)NC(=O)[C@H](CCCNC(=N)N)NC(=O)[C@@H]2CCCN2C(=O)[C@H](CCCNC(=N)N)NC(=O)[C@@H]2CCC(=O)N2)CCSSCC[C@H](C(=O)N[C@@H](Cc2ccccc2)C(=O)O)NC1=O` [Example 55, pE-R-P-R-L-(D-hC)-H-K-G-P-Nle-(D-hC)-F-OH] ([pGlu]RPRL[d(hCys)]HKGP[Nle][d(hCys)]F-OH; disulfide 6-12) belongs more than 16.7 h.
In turn, `CCCC[C@@H]1NC(=O)[C@@H]2CCCN2C(=O)CNC(=O)[C@H](CCCCN)NC(=O)[C@H](Cc2c[nH]cn2)NC(=O)[C@@H](NC(=O)[C@H](CC(C)C)NC(=O)[C@H](CCCNC(=N)N)NC(=O)[C@@H]2CCCN2C(=O)[C@H](CCCNC(=N)N)NC(=O)[C@@H]2CCC(=O)N2)CSSC[C@H](C(=O)N[C@@H](Cc2ccccc2)C(=O)O)NC1=O` [Example 56, pE-R-P-R-L-C-H-K-G-P-Nle-c-F-OH] ([pGlu]RPRLCHKGP[Nle][dC]F-OH; disulfide 6-12) had a half-life of more than 16.7 h.
For `CCCC[C@@H]1NC(=O)[C@@H]2CCCN2C(=O)CNC(=O)[C@H](CCCCN)NC(=O)[C@H](Cc2c[nH]cn2)NC(=O)[C@H](NC(=O)[C@H](CC(C)C)NC(=O)[C@H](CCCNC(=N)N)NC(=O)[C@@H]2CCCN2C(=O)[C@H](CCCNC(=N)N)NC(=O)[C@@H]2CCC(=O)N2)CSSC[C@H](C(=O)N[C@@H](Cc2ccccc2)C(=O)O)NC1=O` [Example 57, pE-R-P-R-L-c-H-K-G-P-Nle-c-F-OH] ([pGlu]RPRL[dC]HKGP[Nle][dC]F-OH; disulfide 6-12) the value was more than 16.7 h.
To `CCCCCCCCCCCCCC(=O)NCCOCCOCC(=O)NCCOCCOCC(=O)N[C@@H](CCC(N)=O)C(=O)N[C@@H](CCCNC(=N)N)C(=O)N1CCC[C@H]1C(=O)N[C@@H](CCCNC(=N)N)C(=O)N[C@@H](CC(C)C)C(=O)N[C@H]1CSSC[C@@H](C(=O)N[C@H](Cc2ccccc2)C(=O)O)NC(=O)[C@H](CCCC)NC(=O)[C@@H]2CCCN2C(=O)CNC(=O)[C@H](CCCCN)NC(=O)[C@H](Cc2c[nH]cn2)NC1=O` [Example 58, Myristoyl-O2Oc-O2Oc-Q-R-P-R-L-C-H-K-G-P-Nle-C-f-OH] ({Myristoyl-AEEA-AEEA}-QRPRLCHKGP[Nle]C[dF]-OH; disulfide 6-12) belongs more than 16.7 h; to `CCCCCCCCCCCCCC(=O)NCCOCCOCC(=O)NCCOCCOCC(=O)NCCOCCOCC(=O)N[C@@H](CCC(N)=O)C(=O)N[C@@H](CCCNC(=N)N)C(=O)N1CCC[C@H]1C(=O)N[C@@H](CCCNC(=N)N)C(=O)N[C@@H](CC(C)C)C(=O)N[C@H]1CSSC[C@@H](C(=O)N[C@H](Cc2ccccc2)C(=O)O)NC(=O)[C@H](CCCC)NC(=O)[C@@H]2CCCN2C(=O)CNC(=O)[C@H](CCCCN)NC(=O)[C@H](Cc2c[nH]cn2)NC1=O` [Example 59, Myristoyl-O2Oc-O2Oc-O2Oc-Q-R-P-R-L-C-H-K-G-P-Nle-C-f-OH] ({Myristoyl-AEEA-AEEA-AEEA}-QRPRLCHKGP[Nle]C[dF]-OH; disulfide 6-12), more than 16.7 h.
For the compound `CCCCCCCCCCCCCC(=O)NCCOCCOCC(=O)NCCOCCOCC(=O)NCCOCCOCC(=O)NCCOCCOCC(=O)N[C@@H](CCC(N)=O)C(=O)N[C@@H](CCCNC(=N)N)C(=O)N1CCC[C@H]1C(=O)N[C@@H](CCCNC(=N)N)C(=O)N[C@@H](CC(C)C)C(=O)N[C@H]1CSSC[C@@H](C(=O)N[C@H](Cc2ccccc2)C(=O)O)NC(=O)[C@H](CCCC)NC(=O)[C@@H]2CCCN2C(=O)CNC(=O)[C@H](CCCCN)NC(=O)[C@H](Cc2c[nH]cn2)NC1=O` [Example 60, Myristoyl-O2Oc-O2Oc-O2Oc-O2Oc-Q-R-P-R-L-C-H-K-G-P-Nle-C-f-OH] ({Myristoyl-AEEA-AEEA-AEEA-AEEA}-QRPRLCHKGP[Nle]C[dF]-OH; disulfide 6-12), the half-life is more than 16.7 h.
For `CCCCCCCCCCCCCC(=O)NCCCC[C@@H]1NC(=O)[C@H](Cc2c[nH]cn2)NC(=O)[C@@H](NC(=O)[C@H](CC(C)C)NC(=O)[C@H](CCCNC(=N)N)NC(=O)[C@@H]2CCCN2C(=O)[C@H](CCCNC(=N)N)NC(=O)[C@@H]2CCC(=O)N2)CSSC[C@@H](C(=O)N[C@@H](Cc2ccccc2)C(=O)O)NC(=O)[C@H](CCCC)NC(=O)[C@@H]2CCCN2C(=O)CNC1=O` [Example 61, pE-R-P-R-L-C-H-K(Myristoyl)-G-P-Nle-C-F-OH] ([pGlu]RPRLCHK(Myristoyl)GP[Nle]CF-OH; disulfide 6-12), the half-life was found to be 4.33 h.
To `CCCC[C@@H]1NC(=O)[C@@H]2CCCN2C(=O)CNC(=O)[C@H](CCCCN)NC(=O)[C@H](Cc2c[nH]cn2)NC(=O)[C@@H](NC(=O)[C@H](CC(C)C)NC(=O)[C@H](CCCNC(=N)N)NC(=O)[C@@H]2CCCN2C(=O)[C@H](CCCNC(=N)N)NC(=O)[C@@H]2CCC(=O)N2)CSSC[C@@H](C(=O)N[C@@H](Cc2ccccc2)C(N)=O)NC1=O` [Example 62, pE-R-P-R-L-C-H-K-G-P-Nle-C-F-NH2] ([pGlu]RPRLCHKGP[Nle]CF-NH2; disulfide 6-12) belongs more than 16.7 h; to `CCCC[C@@H]1NC(=O)[C@@H]2CCCN2C(=O)CNC(=O)[C@H](CCCCN)NC(=O)[C@H](Cc2c[nH]cn2)NC(=O)[C@@H](NC(=O)[C@H](CC(C)C)NC(=O)[C@H](CCCNC(=N)N)NC(=O)[C@@H]2CCCN2C(=O)[C@H](CCCNC(=N)N)NC(=O)[C@@H]2CCC(=O)N2)CSSC[C@@H](C(N)=O)NC1=O` [Example 63, pE-R-P-R-L-C-H-K-G-P-Nle-C-NH2] ([pGlu]RPRLCHKGP[Nle]C-NH2; disulfide 6-12), 11.7 h.
`CCCC[C@@H]1NC(=O)[C@@H]2CCCN2C(=O)CNC(=O)[C@H](CCCCN)NC(=O)[C@H](Cc2cnc[nH]2)NC(=O)[C@@H](NC(=O)[C@H](CC(C)C)NC(=O)[C@H](CCCNC(=N)N)NC(=O)[C@@H]2CCCN2C(=O)[C@H](CCCNC(=N)N)NC(=O)[C@@H]2CCC(=O)N2)CSC[C@@H](C(=O)N[C@@H](Cc2ccccc2)C(=O)O)NC1=O` [Example 65, pE-R-P-R-L-C-H-K-G-P-Nle-C-F-OH] had a half-life of 9.93 h.
On to `CCCC[C@@H]1NC(=O)[C@@H]2CCCN2C(=O)CNC(=O)[C@H](CCCCN)NC(=O)[C@H](Cc2cnc[nH]2)NC(=O)[C@@H](NC(=O)[C@H](CC(C)C)NC(=O)[C@H](CCCNC(=N)N)NC(=O)[C@@H]2CCCN2C(=O)[C@H](CCCNC(=N)N)NC(=O)[C@@H]2CCC(=O)N2)CSC/C(=N/OCC(=O)NCCNC(=O)COCCOCCNC(=O)CCC(NC(=O)CCCCCCCCCCCCCCCCC(=O)O)C(=O)O)CSC[C@@H](C(=O)N[C@@H](Cc2ccccc2)C(=O)O)NC1=O` (stereo partly drawn) [Example 66], for which the half-life stood at 9.93 h.
